Results taken from ChEMBL document CHEMBL5360667, “Carboxylic Acid-Containing Indanyl Compounds as S1P5 Modulators for Treating Neurodegenerative Diseases” (ACS Med Chem Lett, 2023).

Molecular target: Sphingosine 1-phosphate receptor 5 (Homo sapiens) (UniProt Q9H228)
Test: Agonist activity at recombinant S1P5 (unknown origin) expressed in CHO cell membranes assessed as increase in [35S]GTPgammaS binding preincubated for 30 mins followed by [35S]GTPgammaS addition and measured after 40 mins by microbeta scintillation counter analysis
Assay type: functional
Settings: Membrane, filed as agonist, time 70.0 min

Sequence of Sphingosine 1-phosphate receptor 5 (Homo sapiens) (Q9H228 whole entry): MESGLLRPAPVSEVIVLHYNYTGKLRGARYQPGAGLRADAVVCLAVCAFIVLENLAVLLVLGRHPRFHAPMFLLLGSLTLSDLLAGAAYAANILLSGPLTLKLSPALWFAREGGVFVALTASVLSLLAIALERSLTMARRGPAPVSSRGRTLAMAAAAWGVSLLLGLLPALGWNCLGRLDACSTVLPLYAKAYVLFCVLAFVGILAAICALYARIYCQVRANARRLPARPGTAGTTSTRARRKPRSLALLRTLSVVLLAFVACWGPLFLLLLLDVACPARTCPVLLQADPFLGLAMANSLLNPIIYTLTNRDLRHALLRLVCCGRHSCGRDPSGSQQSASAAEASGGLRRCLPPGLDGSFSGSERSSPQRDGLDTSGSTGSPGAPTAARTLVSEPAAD

## Cc1cc(OCc2c(Cl)cccc2Cl)cc2c1C(N1CCC(C(=O)O)CC1)CC2 (stereo unspecified)
  EC: < 1 nM

## O=C(O)C1CN(C2CCc3cc(OCc4ccc(C5CC5)c(C(F)(F)F)c4)ccc32)C1 (stereo unspecified)
  EC: 1 nM

## O=C(O)C1CCN(C2CCc3c2ccc(OCc2c(Cl)cccc2Cl)c3F)CC1 (stereo unspecified)
  EC: < 1 nM

## O=C(O)C1CN(C2CCc3cc(OCc4cc(F)c(F)cc4F)ccc32)C1 (stereo unspecified)
  EC: 1 nM

## CC(C)Oc1ccc(COc2ccc3c(c2)CCC3N2CC(C(=O)O)C2)cc1C(F)(F)F (stereo unspecified)
  EC: 1 nM

## Cc1c(OCc2c(Cl)cccc2Cl)ccc2c1CCC2N1CCC(C(=O)O)CC1 (stereo unspecified)
  EC: < 1 nM
